Test system: α-glucosidase
Test: α-glucosidase inhibitor activity
Assay type: biochemical

## OCC1NCC(O)C(O)C1O (stereo not shown) [1-deoxynojirimycin]
  Activity among the alkaloids of the effective fraction: the activity is also the highest

Source: patent US9066960B2, “Use of the effective fraction of alkaloids from mulberry twig in preparing hypoglycemic agents” (INSTITUTE OF MATARIA MEDICA, CHINESE ACADEMY OF MEDICAL …, priority 2006, dated 2015)
